According to the NIST ThermoML archive (doi:10.1021/je025538u):
± gives the expanded uncertainty stated by the source.

Legend:
[1] = 101.33 kPa, Liquid
[2] = cn = amount concentration of the nth substance listed, in mol/dm3; details: 101.3 kPa, Liquid

CCC(C)O (stereo not drawn) [butan-2-ol]
[1]
Details	mass density [kg/m3]	viscosity [mPa·s]
293.15 K	806.6 ± 1.5	3.663 ± 0.16
303.15 K	799.3 ± 1.7	2.527 ± 0.12
313.15 K	792.2 ± 1.8	1.801 ± 0.084
333.15 K	778 ± 4	1.025 ± 0.051

CCCCCCCCCCCC(=O)O [dodecanoic acid] + CCC(C)O
[2]
Details	mass density, 293.15 K [kg/m3]	mass density, 303.15 K [kg/m3]	mass density, 313.15 K [kg/m3]	mass density, 333.15 K [kg/m3]	viscosity, 293.15 K [mPa·s]	viscosity, 303.15 K [mPa·s]	viscosity, 313.15 K [mPa·s]	viscosity, 333.15 K [mPa·s]
c1 = 0.0103	806.38 ± 1.5	798.71 ± 1.7	791.02 ± 1.8	778.39 ± 2.1	3.58 ± 0.16	2.547 ± 0.12	1.81 ± 0.084	1.05 ± 0.052
c1 = 0.05	807.27 ± 1.5	800.23 ± 1.7	793.39 ± 1.8	779.62 ± 2.1	3.665 ± 0.16	2.548 ± 0.12	1.818 ± 0.085	1.04 ± 0.051
c1 = 0.1003	807.29 ± 1.5	800.56 ± 1.7	794.11 ± 1.8	780.76 ± 2.1	3.7 ± 0.16	2.573 ± 0.12	1.851 ± 0.086	1.07 ± 0.053
c1 = 0.15	808.85 ± 1.5	801.14 ± 1.7	794.51 ± 1.8	782 ± 2.1	3.688 ± 0.16	2.585 ± 0.12	1.865 ± 0.087	1.08 ± 0.053
c1 = 0.2001	808.76 ± 1.5	801.85 ± 1.7	794.64 ± 1.8	782.9 ± 2.1	3.744 ± 0.17	2.624 ± 0.12	1.877 ± 0.087	1.1 ± 0.054
c1 = 0.35	812.86 ± 1.6	805.19 ± 1.7	797.47 ± 1.8	785.3 ± 2.1	3.841 ± 0.17	2.704 ± 0.12	1.951 ± 0.09	1.15 ± 0.056

CCCCCCCCCCCCCCCC(=O)O [hexadecanoic acid] + CCC(C)O
[2]
Details	mass density, 293.15 K [kg/m3]	mass density, 303.15 K [kg/m3]	mass density, 313.15 K [kg/m3]	mass density, 333.15 K [kg/m3]	viscosity, 293.15 K [mPa·s]	viscosity, 303.15 K [mPa·s]	viscosity, 313.15 K [mPa·s]	viscosity, 333.15 K [mPa·s]
c1 = 0.01	807.66 ± 1.6	799.68 ± 1.7	792.63 ± 1.8	–	3.53 ± 0.16	2.464 ± 0.11	1.751 ± 0.082	–
c1 = 0.05	807.67 ± 1.6	800.09 ± 1.7	792.74 ± 1.8	782.3 ± 2.1	3.616 ± 0.16	2.499 ± 0.11	1.789 ± 0.083	1.09 ± 0.053
c1 = 0.1	809.21 ± 1.6	801.34 ± 1.7	794.66 ± 1.8	782.9 ± 2.1	3.613 ± 0.16	2.512 ± 0.11	1.808 ± 0.084	1.08 ± 0.053
c1 = 0.1501	810.16 ± 1.5	802.89 ± 1.7	795.01 ± 1.8	783.19 ± 2.1	3.7 ± 0.16	2.585 ± 0.12	1.85 ± 0.086	1.13 ± 0.055
c1 = 0.2001	810.6 ± 1.6	802.96 ± 1.7	795.11 ± 1.8	783.51 ± 2.1	3.828 ± 0.17	2.665 ± 0.12	1.921 ± 0.089	1.14 ± 0.056
c1 = 0.3501	813.04 ± 1.5	806.24 ± 1.7	799.34 ± 1.8	787.5 ± 2.2	4.056 ± 0.18	2.834 ± 0.13	2.045 ± 0.094	1.27 ± 0.061

CCCCCCCCCCCCCCCCCC(=O)O [octadecanoic acid] + CCC(C)O
[2]
Details	mass density, 293.15 K [kg/m3]	mass density, 303.15 K [kg/m3]	mass density, 313.15 K [kg/m3]	mass density, 333.15 K [kg/m3]	viscosity, 293.15 K [mPa·s]	viscosity, 303.15 K [mPa·s]	viscosity, 313.15 K [mPa·s]	viscosity, 333.15 K [mPa·s]
c1 = 0.01	806.45 ± 1.5	798.83 ± 1.7	792.46 ± 1.8	–	3.611 ± 0.16	2.499 ± 0.11	1.766 ± 0.083	–
c1 = 0.05	806.9 ± 1.6	799.7 ± 1.7	792.65 ± 1.8	782.79 ± 2.1	3.679 ± 0.16	2.531 ± 0.12	1.808 ± 0.084	1.09 ± 0.053
c1 = 0.1	813.95 ± 8	806.09 ± 8	796.45 ± 1.8	783.92 ± 2.2	3.795 ± 0.17	2.466 ± 0.11	1.79 ± 0.084	1.1 ± 0.054
c1 = 0.15	810.78 ± 1.6	803.5 ± 1.7	796.91 ± 1.8	784.23 ± 2.1	3.785 ± 0.17	2.627 ± 0.12	1.886 ± 0.088	1.16 ± 0.056
c1 = 0.2	811.62 ± 1.5	804.54 ± 1.7	797.76 ± 1.8	785.41 ± 2.2	3.799 ± 0.17	2.584 ± 0.12	1.881 ± 0.087	1.16 ± 0.056
c1 = 0.3501	814.68 ± 1.6	806.92 ± 1.7	800.5 ± 1.8	788.89 ± 2.2	4.177 ± 0.18	2.919 ± 0.13	2.017 ± 0.093	1.36 ± 0.065
